Reference: ChEMBL document CHEMBL2163233, “3-Oxoisoindoline-1-carboxamides: potent, state-dependent blockers of voltage-gated sodium channel Na(V)1.7 with efficacy in rat pain models” (J Med Chem, 2012)
pIC50: −log10 of the molar value. Converted amounts (≈) assume the structure as drawn. The source made the active and inactive calls. The calls are words filed in the database; no cut-off is given here.

What was measured:
[1] = target: Nitric oxide synthase 3 (Homo sapiens) (UniProt P29474); settings: 10 uM
in vitro [2] = settings: Sprague-Dawley, rat, plasma
in vivo [3] = settings: Sprague-Dawley, rat, iv, 3 umol/kg
Rattus norvegicus [4] = species: Rattus norvegicus; assay: animal or person; settings: Sprague-Dawley, po, read-out: INH
in vivo [5] = settings: Sprague-Dawley, rat, po, 10 umol/kg
in vivo [6] = settings: Sprague-Dawley, rat, po, 10 umol/kg; remark: listed apart in the source
cells = settings: Homo sapiens, HEK293
Rattus norvegicus [7] = species: Rattus norvegicus; assay: animal or person; settings: Sprague-Dawley, po, read-out: INH; remark: listed apart in the source
[8] = target: Alpha-1D adrenergic receptor (Homo sapiens) (UniProt P25100); settings: 10 uM
Rattus norvegicus [9] = species: Rattus norvegicus; assay: animal or person; settings: Sprague-Dawley, po, read-out: INH; remark: listed apart in the source
[10] = target: Transient receptor potential cation channel subfamily A member 1 (Homo sapiens) (UniProt O75762); settings: 11 uM
[11] = target: 5-hydroxytryptamine receptor 2A (Homo sapiens) (UniProt P28223); settings: 10 uM
in vivo [12] = settings: Sprague-Dawley, rat, brain/plasma
Rattus norvegicus [13] = species: Rattus norvegicus; assay: animal or person; settings: Sprague-Dawley, po, read-out: INH; remark: listed apart in the source
[14] = target: Alpha-2A adrenergic receptor (Homo sapiens) (UniProt P08913); settings: 10 uM
[15] = target: Potassium voltage-gated channel subfamily A member 5 (Homo sapiens) (UniProt P22460); settings: 10 uM
[16] = target: Voltage-dependent T-type calcium channel subunit alpha-1H (Homo sapiens) (UniProt O95180); settings: 31.6 uM
in vitro [17] = settings: rat, microsomes, CLH
in vivo [18] = settings: Sprague-Dawley, rat, iv, 3 umol/kg; remark: listed apart in the source
[19] = target: Muscarinic acetylcholine receptor M2 (Homo sapiens) (UniProt P08172); settings: 10 uM
[20] = target: Histamine H1 receptor (Homo sapiens) (UniProt P35367); settings: 10 uM
in vivo [21] = settings: Sprague-Dawley, rat, iv, 3 umol/kg; remark: listed apart in the source
Rattus norvegicus [22] = species: Rattus norvegicus; assay: animal or person; settings: Sprague-Dawley, po, read-out: INH; remark: listed apart in the source
in vivo [23] = settings: Sprague-Dawley, rat, po, 10 umol/kg; remark: listed apart in the source
[24] = target: Estrogen receptor (Homo sapiens) (UniProt P03372); settings: 10 uM
Rattus norvegicus [25] = species: Rattus norvegicus; assay: animal or person; settings: Sprague-Dawley, po, read-out: INH; remark: listed apart in the source
[26] = target: Insulin receptor (Homo sapiens) (UniProt P06213); settings: 10 uM
[27] = target: Acetylcholinesterase (Homo sapiens) (UniProt P22303); settings: 10 uM
[28] = target: Glycine receptor subunit alpha-1 (Homo sapiens) (UniProt P23415); settings: 33 uM
[29] = target: Potassium voltage-gated channel subfamily KQT member 2 (Homo sapiens) (UniProt O43526); settings: 10 uM
[30] = target: Prostaglandin G/H synthase 1 (Homo sapiens) (UniProt P23219); settings: 10 uM
in vivo [31] = settings: Sprague-Dawley, rat, po, 10 umol/kg; remark: listed apart in the source
in vivo [32] = settings: Sprague-Dawley, rat, iv, 3 umol/kg; remark: listed apart in the source
[33] = target: D(2) dopamine receptor (Homo sapiens) (UniProt P14416); settings: 10 uM
in vitro [34] = settings: human, microsomes, CLH
[35] = target: Beta-1 adrenergic receptor (Homo sapiens) (UniProt P08588); settings: 10 uM
[36] = target: Mu-type opioid receptor (Homo sapiens) (UniProt P35372); settings: 10 uM
Rattus norvegicus [37] = species: Rattus norvegicus; settings: Brain, Brain membranes, 10 uM
in vivo [38] = settings: Sprague-Dawley, rat, po, 10 umol/kg; remark: listed apart in the source
[39] = target: Sodium-dependent noradrenaline transporter (Homo sapiens) (UniProt P23975); settings: 10 uM
Rattus norvegicus [40] = species: Rattus norvegicus; assay: animal or person; settings: Sprague-Dawley, po, read-out: INH; remark: listed apart in the source
Rattus norvegicus [41] = species: Rattus norvegicus; assay: animal or person; settings: Sprague-Dawley, po, read-out: INH; remark: listed apart in the source
in vitro [42] = settings: human, Caco-2

Chain of Nitric oxide synthase 3 (Homo sapiens) (P29474 whole entry): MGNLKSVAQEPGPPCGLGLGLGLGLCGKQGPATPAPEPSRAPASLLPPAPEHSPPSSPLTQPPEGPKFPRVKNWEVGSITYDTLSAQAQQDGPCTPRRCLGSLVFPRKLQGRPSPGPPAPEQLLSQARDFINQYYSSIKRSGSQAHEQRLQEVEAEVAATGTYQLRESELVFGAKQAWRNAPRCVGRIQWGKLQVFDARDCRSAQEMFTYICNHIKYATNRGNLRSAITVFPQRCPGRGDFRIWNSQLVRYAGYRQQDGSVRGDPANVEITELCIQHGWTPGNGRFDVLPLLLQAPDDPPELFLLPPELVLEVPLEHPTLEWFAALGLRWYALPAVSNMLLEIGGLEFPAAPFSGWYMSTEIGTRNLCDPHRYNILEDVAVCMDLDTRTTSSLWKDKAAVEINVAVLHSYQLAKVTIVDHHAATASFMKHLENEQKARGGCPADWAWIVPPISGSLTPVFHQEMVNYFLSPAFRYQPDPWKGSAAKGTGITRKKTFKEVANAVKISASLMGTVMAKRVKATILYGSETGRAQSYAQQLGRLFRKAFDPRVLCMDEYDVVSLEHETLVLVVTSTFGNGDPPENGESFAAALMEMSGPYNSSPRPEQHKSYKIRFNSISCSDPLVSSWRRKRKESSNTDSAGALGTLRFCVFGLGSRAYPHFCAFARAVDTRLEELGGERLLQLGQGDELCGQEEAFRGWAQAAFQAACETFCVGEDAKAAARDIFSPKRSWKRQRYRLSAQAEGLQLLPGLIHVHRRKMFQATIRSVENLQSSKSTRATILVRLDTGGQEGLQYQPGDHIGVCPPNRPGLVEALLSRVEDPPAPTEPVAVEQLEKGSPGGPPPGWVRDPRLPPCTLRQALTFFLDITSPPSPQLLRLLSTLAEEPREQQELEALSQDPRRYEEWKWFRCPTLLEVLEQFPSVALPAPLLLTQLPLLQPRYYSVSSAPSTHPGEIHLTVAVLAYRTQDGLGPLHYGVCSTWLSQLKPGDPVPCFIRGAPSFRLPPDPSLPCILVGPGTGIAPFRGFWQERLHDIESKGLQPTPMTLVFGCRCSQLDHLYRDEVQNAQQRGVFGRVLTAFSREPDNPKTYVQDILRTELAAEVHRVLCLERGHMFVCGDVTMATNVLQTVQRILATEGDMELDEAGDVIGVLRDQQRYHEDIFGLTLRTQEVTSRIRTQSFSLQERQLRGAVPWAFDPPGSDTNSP
Chain of Alpha-2A adrenergic receptor (Homo sapiens) (P08913 whole entry): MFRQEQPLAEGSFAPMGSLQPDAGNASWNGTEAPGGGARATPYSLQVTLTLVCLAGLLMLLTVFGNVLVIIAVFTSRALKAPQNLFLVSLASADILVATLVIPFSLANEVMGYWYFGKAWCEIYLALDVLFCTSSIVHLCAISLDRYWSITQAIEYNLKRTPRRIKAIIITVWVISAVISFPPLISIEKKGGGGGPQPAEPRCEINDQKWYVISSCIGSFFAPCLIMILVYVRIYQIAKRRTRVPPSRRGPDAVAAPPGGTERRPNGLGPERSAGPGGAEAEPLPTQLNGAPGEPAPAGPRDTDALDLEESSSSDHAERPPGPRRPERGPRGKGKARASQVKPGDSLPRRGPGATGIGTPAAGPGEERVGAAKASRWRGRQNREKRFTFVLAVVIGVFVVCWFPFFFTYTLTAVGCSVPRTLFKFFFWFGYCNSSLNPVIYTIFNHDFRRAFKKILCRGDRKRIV
Chain of Glycine receptor subunit alpha-1 (Homo sapiens) (P23415 whole entry): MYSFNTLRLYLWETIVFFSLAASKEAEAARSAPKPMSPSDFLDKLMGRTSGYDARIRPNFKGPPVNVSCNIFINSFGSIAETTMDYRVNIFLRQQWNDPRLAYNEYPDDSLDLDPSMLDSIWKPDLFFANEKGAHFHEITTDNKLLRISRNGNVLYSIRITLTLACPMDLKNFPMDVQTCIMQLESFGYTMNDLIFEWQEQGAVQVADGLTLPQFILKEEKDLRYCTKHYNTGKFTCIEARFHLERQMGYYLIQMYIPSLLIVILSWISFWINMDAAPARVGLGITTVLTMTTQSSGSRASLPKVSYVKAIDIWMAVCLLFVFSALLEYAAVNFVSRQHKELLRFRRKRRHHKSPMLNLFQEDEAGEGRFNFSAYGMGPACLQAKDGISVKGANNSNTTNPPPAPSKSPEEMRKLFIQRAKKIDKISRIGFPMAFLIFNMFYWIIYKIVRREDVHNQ
Chain of 5-hydroxytryptamine receptor 2A (Homo sapiens) (P28223 whole entry): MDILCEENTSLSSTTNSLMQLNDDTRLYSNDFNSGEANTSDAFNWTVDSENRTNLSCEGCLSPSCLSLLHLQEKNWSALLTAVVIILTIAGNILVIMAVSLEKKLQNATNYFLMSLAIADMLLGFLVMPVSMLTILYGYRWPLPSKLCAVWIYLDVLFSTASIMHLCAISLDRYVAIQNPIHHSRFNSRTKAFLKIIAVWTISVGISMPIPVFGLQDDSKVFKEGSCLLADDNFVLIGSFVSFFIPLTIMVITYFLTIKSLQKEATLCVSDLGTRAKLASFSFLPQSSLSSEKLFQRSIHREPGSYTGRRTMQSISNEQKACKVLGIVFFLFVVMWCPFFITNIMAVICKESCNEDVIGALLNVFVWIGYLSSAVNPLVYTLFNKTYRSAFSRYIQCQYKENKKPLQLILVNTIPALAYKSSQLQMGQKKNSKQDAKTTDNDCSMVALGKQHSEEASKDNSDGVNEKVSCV
Chain of Estrogen receptor (Homo sapiens) (P03372 whole entry): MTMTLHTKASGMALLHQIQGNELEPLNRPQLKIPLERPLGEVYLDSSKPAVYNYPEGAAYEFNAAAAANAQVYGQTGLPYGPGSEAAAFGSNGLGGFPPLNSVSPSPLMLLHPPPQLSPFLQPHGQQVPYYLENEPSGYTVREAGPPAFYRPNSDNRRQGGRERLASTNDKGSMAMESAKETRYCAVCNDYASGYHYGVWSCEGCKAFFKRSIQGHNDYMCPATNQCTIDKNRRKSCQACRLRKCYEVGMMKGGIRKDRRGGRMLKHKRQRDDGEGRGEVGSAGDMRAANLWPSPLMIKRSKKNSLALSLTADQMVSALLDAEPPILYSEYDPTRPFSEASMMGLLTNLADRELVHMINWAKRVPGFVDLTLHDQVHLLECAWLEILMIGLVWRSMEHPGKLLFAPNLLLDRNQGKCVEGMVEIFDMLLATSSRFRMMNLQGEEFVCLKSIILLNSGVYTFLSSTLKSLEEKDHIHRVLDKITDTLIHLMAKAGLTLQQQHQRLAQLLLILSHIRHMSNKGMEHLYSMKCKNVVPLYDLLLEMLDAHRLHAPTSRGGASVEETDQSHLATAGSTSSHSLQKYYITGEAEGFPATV
Chain of Mu-type opioid receptor (Homo sapiens) (P35372 whole entry): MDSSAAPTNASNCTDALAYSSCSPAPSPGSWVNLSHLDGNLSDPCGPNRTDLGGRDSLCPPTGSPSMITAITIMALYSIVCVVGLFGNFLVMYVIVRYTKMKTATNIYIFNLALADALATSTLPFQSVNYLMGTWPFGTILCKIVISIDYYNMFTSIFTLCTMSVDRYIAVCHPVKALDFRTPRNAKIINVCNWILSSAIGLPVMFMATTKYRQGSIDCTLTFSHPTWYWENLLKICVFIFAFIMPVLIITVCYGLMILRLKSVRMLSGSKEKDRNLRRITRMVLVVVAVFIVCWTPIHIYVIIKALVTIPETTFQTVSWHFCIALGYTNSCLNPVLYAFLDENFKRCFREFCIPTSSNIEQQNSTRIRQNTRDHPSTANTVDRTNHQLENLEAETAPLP
Chain of D(2) dopamine receptor (Homo sapiens) (P14416 whole entry): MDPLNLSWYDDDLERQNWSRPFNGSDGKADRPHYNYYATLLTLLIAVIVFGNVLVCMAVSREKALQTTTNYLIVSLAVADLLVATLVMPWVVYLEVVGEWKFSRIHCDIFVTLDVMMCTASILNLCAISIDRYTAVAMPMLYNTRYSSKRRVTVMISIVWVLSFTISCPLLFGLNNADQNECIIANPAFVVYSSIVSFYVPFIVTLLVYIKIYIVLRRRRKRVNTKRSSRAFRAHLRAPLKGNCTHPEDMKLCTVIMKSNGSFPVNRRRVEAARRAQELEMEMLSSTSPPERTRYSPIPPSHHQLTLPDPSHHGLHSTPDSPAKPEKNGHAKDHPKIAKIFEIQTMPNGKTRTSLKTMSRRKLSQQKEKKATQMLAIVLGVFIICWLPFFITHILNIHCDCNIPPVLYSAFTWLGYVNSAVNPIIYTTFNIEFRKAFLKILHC
Chain of Prostaglandin G/H synthase 1 (Homo sapiens) (P23219 whole entry): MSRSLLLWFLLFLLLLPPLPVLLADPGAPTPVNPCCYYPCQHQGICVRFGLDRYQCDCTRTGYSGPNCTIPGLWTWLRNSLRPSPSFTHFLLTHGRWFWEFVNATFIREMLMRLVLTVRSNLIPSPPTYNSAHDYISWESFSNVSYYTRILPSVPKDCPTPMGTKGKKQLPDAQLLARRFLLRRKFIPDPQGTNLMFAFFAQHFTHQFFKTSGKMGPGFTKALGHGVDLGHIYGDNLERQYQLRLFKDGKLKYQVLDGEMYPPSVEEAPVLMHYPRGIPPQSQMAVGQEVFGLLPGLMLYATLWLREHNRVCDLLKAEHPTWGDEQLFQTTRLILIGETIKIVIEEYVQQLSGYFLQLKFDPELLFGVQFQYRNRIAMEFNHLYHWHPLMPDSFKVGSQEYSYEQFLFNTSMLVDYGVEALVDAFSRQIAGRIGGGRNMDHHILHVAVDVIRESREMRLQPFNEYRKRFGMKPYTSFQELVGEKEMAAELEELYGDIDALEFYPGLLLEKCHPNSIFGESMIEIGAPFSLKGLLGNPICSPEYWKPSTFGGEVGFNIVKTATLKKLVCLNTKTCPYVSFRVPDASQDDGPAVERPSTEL

**Q.** For `O=C(NCc1ccc(OC(F)(F)F)cc1)C1c2ccccc2C(=O)N1C1CCOCC1` (single isomer, unassigned; enantiomer 2), which inhibition [1] is on record?
**A.** inactive

**Q.** And the fraction unbound (in vitro [2])?
**A.** 0.132

**Q.** And the AUC (in vivo [3])?
**A.** 1.7 µM·h

**Q.** And the inhibition in vivo at 30 µmol/kg (Rattus norvegicus [4])?
**A.** 34%

**Q.** And the AUC (in vivo [5])?
**A.** 1.1 µM·h

**Q.** And the half-life (in vivo [6])?
**A.** 114 min

**Q.** And the pIC50 (cells)?
**A.** < 4.48

**Q.** And the inhibition in vivo at 100 µmol/kg (Rattus norvegicus [7])?
**A.** 42%

**Q.** And the inhibition [8]?
**A.** inactive

**Q.** What about the inhibition in vivo at 30 µmol/kg (Rattus norvegicus [9]) of the same molecule?
**A.** 16%

**Q.** What about the inhibition [10] of the same molecule?
**A.** inactive

**Q.** What about the inhibition [11] of the same molecule?
**A.** inactive

**Q.** And the Kp (in vivo [12])?
**A.** 1

**Q.** What about the inhibition in vivo at 100 µmol/kg (Rattus norvegicus [13]) of the same molecule?
**A.** 54%

**Q.** And the inhibition [14]?
**A.** inactive

**Q.** What about the inhibition [15] of the same molecule?
**A.** inactive

**Q.** What about the inhibition [16] of the same molecule?
**A.** inactive

**Q.** What about the microsomal CLint (in vitro [17]) of the same molecule?
**A.** < 10 µL/min/mg

**Q.** And the clearance (in vivo [18])?
**A.** 30 mL/min/kg

**Q.** What about the inhibition [19] of the same molecule?
**A.** inactive

**Q.** And the inhibition [20]?
**A.** inactive

**Q.** And the Vd (in vivo [21])?
**A.** 0.8 L/kg

**Q.** What about the inhibition in vivo at 100 µmol/kg (Rattus norvegicus [22]) of the same molecule?
**A.** 65%

**Q.** And the bioavailability (in vivo [23])?
**A.** 20%

**Q.** What about the inhibition [24] of the same molecule?
**A.** inactive

**Q.** What about the inhibition in vivo at 140 µmol/kg (Rattus norvegicus [25]) of the same molecule?
**A.** 30%

**Q.** And the inhibition [26]?
**A.** inactive

**Q.** What about the inhibition [27] of the same molecule?
**A.** inactive

**Q.** What about the inhibition [28] of the same molecule?
**A.** inactive

**Q.** And the inhibition [29]?
**A.** inactive

**Q.** And the inhibition [30]?
**A.** inactive

**Q.** And the Cmax (in vivo [31])?
**A.** 600 nM

**Q.** What about the half-life (in vivo [32]) of the same molecule?
**A.** 60 min

**Q.** What about the inhibition [33] of the same molecule?
**A.** inactive

**Q.** And the microsomal CLint (in vitro [34])?
**A.** 15 µL/min/mg

**Q.** What about the inhibition [35] of the same molecule?
**A.** inactive

**Q.** What about the inhibition [36] of the same molecule?
**A.** inactive

**Q.** What about the inhibition (Rattus norvegicus [37]) of the same molecule?
**A.** 79%

**Q.** What about the Tmax (in vivo [38]) of the same molecule?
**A.** 18 min

**Q.** What about the inhibition [39] of the same molecule?
**A.** inactive

**Q.** For `O=C(NCc1ccc(OC(F)(F)F)cc1)C1c2ccccc2C(=O)N1CCc1ccccn1` (stereo in doubt; 16A), which inhibition [1] is on record?
**A.** inactive

**Q.** What about the fraction unbound (in vitro [2]) of the same molecule?
**A.** 0.045

**Q.** What about the AUC (in vivo [3]) of the same molecule?
**A.** 1.7 µM·h

**Q.** What about the inhibition in vivo at 30 µmol/kg (Rattus norvegicus [4]) of the same molecule?
**A.** 25%

**Q.** What about the AUC (in vivo [5]) of the same molecule?
**A.** 2.1 µM·h

**Q.** What about the half-life (in vivo [6]) of the same molecule?
**A.** 354 min

**Q.** What about the pIC50 (cells) of the same molecule?
**A.** 5.00

**Q.** And the inhibition in vivo at 140 µmol/kg (Rattus norvegicus [40])?
**A.** 53%

**Q.** And the inhibition in vivo at 100 µmol/kg (Rattus norvegicus [7])?
**A.** 42%

**Q.** What about the inhibition [8] of the same molecule?
**A.** inactive

**Q.** What about the inhibition in vivo at 30 µmol/kg (Rattus norvegicus [9]) of the same molecule?
**A.** 26%

**Q.** What about the inhibition [10] of the same molecule?
**A.** inactive

**Q.** What about the inhibition [11] of the same molecule?
**A.** inactive

**Q.** What about the Kp (in vivo [12]) of the same molecule?
**A.** 2

**Q.** What about the inhibition in vivo at 100 µmol/kg (Rattus norvegicus [13]) of the same molecule?
**A.** 56%

**Q.** What about the inhibition [14] of the same molecule?
**A.** inactive

**Q.** And the inhibition [16]?
**A.** 44%

**Q.** And the inhibition [19]?
**A.** inactive

**Q.** What about the inhibition in vivo at 30 µmol/kg (Rattus norvegicus [41]) of the same molecule?
**A.** 35%

**Q.** What about the inhibition [20] of the same molecule?
**A.** inactive

**Q.** And the inhibition in vivo at 100 µmol/kg (Rattus norvegicus [22])?
**A.** 44%

**Q.** And the bioavailability (in vivo [23])?
**A.** 37%

**Q.** And the inhibition [24]?
**A.** inactive

**Q.** What about the inhibition in vivo at 140 µmol/kg (Rattus norvegicus [25]) of the same molecule?
**A.** 84%

**Q.** And the inhibition [26]?
**A.** inactive

**Q.** What about the inhibition [27] of the same molecule?
**A.** inactive

**Q.** And the inhibition [28]?
**A.** inactive

**Q.** What about the inhibition [30] of the same molecule?
**A.** inactive

**Q.** And the Cmax (in vivo [31])?
**A.** 600 nM

**Q.** And the inhibition [33]?
**A.** inactive

**Q.** What about the inhibition [35] of the same molecule?
**A.** inactive

**Q.** What about the inhibition [36] of the same molecule?
**A.** inactive

**Q.** And the inhibition (Rattus norvegicus [37])?
**A.** 100%

**Q.** What about the Tmax (in vivo [38]) of the same molecule?
**A.** 30 min

**Q.** What about the inhibition [39] of the same molecule?
**A.** inactive

**Q.** For `O=C(NCc1cccc(OC(F)(F)F)c1)C1c2ccccc2C(=O)N1CCc1ncc(F)cn1` (centres undefined), which Papp (in vitro [42]) is on record?
**A.** 50 ×10⁻⁶ cm/s

**Q.** What about the fraction unbound (in vitro [2]) of the same molecule?
**A.** 0.18

**Q.** What about the AUC (in vivo [3]) of the same molecule?
**A.** 2.1 µM·h

**Q.** What about the AUC (in vivo [5]) of the same molecule?
**A.** 0.4 µM·h

**Q.** What about the half-life (in vivo [6]) of the same molecule?
**A.** 486 min

**Q.** What about the microsomal CLint (in vitro [17]) of the same molecule?
**A.** 28 µL/min/mg

**Q.** And the clearance (in vivo [18])?
**A.** 29 mL/min/kg

**Q.** What about the Vd (in vivo [21]) of the same molecule?
**A.** 0.7 L/kg

**Q.** And the bioavailability (in vivo [23])?
**A.** 6%

**Q.** What about the Cmax (in vivo [31]) of the same molecule?
**A.** 90 nM

**Q.** What about the half-life (in vivo [32]) of the same molecule?
**A.** 24 min

**Q.** What about the solubility at 4 h (physchem) of the same molecule?
**A.** 61 µM (≈ 28.9 µg/mL)

**Q.** What about the microsomal CLint (in vitro [34]) of the same molecule?
**A.** 180 µL/min/mg

**Q.** What about the Tmax (in vivo [38]) of the same molecule?
**A.** 24 min

**Q.** Which results are given for `O=C(NCc1ccc(F)c(C(F)(F)F)c1)C1c2ccccc2C(=O)N1CCc1ncc(F)cn1` (centres undefined)?
**A.** Papp (in vitro [42]): 39 ×10⁻⁶ cm/s; fraction unbound (in vitro [2]): 0.13; AUC (in vivo [3]): 1.6 µM·h; AUC (in vivo [5]): 0.2 µM·h; half-life (in vivo [6]): 72 min; pIC50 (cells): 4.48; microsomal CLint (in vitro [17]): < 10 µL/min/mg; clearance (in vivo [18]): 32 mL/min/kg; Vd (in vivo [21]): 0.9 L/kg; bioavailability (in vivo [23]): 4%; Cmax (in vivo [31]): 100 nM; half-life (in vivo [32]): 24 min; solubility at 4 h (physchem): 14 µM (≈ 6.67 µg/mL); microsomal CLint (in vitro [34]): < 10 µL/min/mg; Tmax (in vivo [38]): 18 min
